Source: patent US9743646B2, “Method of establishing isogenic multi-xenograft model and the use thereof” (Crown Bioscience Inc. (Taicang), priority 2014, dated 2017)

Columns and labels:
Assay type in all cases: in vivo, Nude mice
[1] = test system: SW48-KRAS (G13D/+) xenograft (HD 103-002); experiment: Tumor volume of SW48-KRAS (G13D/+) xenograft in isogenic dual-xenograft mice
Description: (§1) The SW48 series colorectal adenocarcinoma cells were obtained from Horizon Discovery Ltd (see below in Table 1 for Catalogue number details), and maintained in vitro as a monolayer culture in McCoy's 5A medium supplemented with 10% heat inactivated fetal bovine serum, 2 mM L-glutamine, with or without G418, at 37° C. in an atmosphere of 5% CO2 in air. The tumor cells were routinely subcultured every 3-5 days by trypsin-EDTA treatment. Cells growing in an exponential growth phase were harvested and counted for tumor inoculation. HD 103-002 cell line was derived from parental SW48 cell line HD PAR-006 with heterozygous knock-in of KRAS activating mutation-G13D; HD 103-007 cell line was derived from parental SW48 cell line HD PAR-006 with heterozygous knock-in of KRAS activating mutation-G12V.
(§2) Each mouse is grafted subcutaneously at the left and right flank with SW48 tumor cells (1×10^7 cells) in 0.1 ml of PBS for tumor development, among which 15 mouse are grafted with 1×10^7HD PAR-006 cells at their left flank and with 1×10^7 HD 103-002 cells at their right flank, and the other 15 mouse are grafted with 1×10^7 HD PAR-006 cells at their left flank and with 1×10^7 HD103-007 cells at their right flank. Mice with xenografts are then allow sufficient time (in present embodiment, around 5-8 days) to develop solid tumor.
(§3) Isogenic dual-xenograft mice produced in accordance to the methods described in Example 1 were used to evaluate test agents for their efficacy on the disease associated with mutations of gene. More specifically, mice with different KRAS mutations were treated with EGFR inhibitors to address the question of resistant phenotypes elicited by different KRAS mutations. This design allows direct comparison of wild type and mutant isogenic pairs for treatment responses that are associated with the defined genetic variations.
(§4) The major endpoint was to evaluate the tumor growth. Tumor sizes were measured twice weekly in two dimensions using a caliper, and the volume were expressed in mm3 using the formula: V=0.5 a×b^2, where a and b are the long and short diameters of the tumor, respectively.

[2] = test system: SW48-KRAS (G12V/+) xenograft (HD 103-007); experiment: Tumor volume of SW48-KRAS (G12V/+) xenograft in isogenic dual-xenograft mice
Description: as §1, §2, §3, §4

[3] = test system: SW48-parental xenograft (HD PAR-006, KRAS WT); experiment: Tumor volume of SW48-parental xenograft in isogenic dual-xenograft mice; conditions: Erlotinib 50 mg/kg p.o. once daily, 14 days, vs saline
Description: as §1, with “mutation-G12V. […]” for “mutation-G12V.”
as §4

[4] = Erlotinib 50 mg/kg p.o. once daily, 14 days
[5] = Erlotinib 50 mg/kg, p.o., Qd x 14, SW48 KRAS(G13D/+), tumor volume
[6] = Erlotinib 50 mg/kg, p.o., Qd x 14, SW48 KRAS(G12V/+), tumor volume

## C#Cc1cccc(Nc2ncnc3cc(OCCOC)c(OCCOC)cc23)c1 [Erlotinib]
[1]; [4]
  response of SW48 KRAS (G13D/+) compared to the parental line: remains sensitive
[1]; Erlotinib 50 mg/kg p.o. once daily, 14 days, vs saline
  effect on tumor volume of the SW48-KRAS (G13D/+) xenograft (FIG. 1B): significantly reduced
[1]; [5]
  T/C on Day 21: 24%
  TGI on Day 21: 76%
[2]; [4]
  response of SW48 KRAS (G12V/+) compared to the parental line: resistant
[2]; Erlotinib 50 mg/kg p.o. once daily, 14 days, compared with parental xenograft
  reduction on the tumor volume of the SW48-KRAS (G12V/+) xenograft (FIG. 2B): not as significant as on the SW48-KRAS-parental xenograft
[2]; [6]
  T/C on Day 21: 86%
  TGI on Day 21: 14%
[3]; dual model with SW48-KRAS (G12V/+)
  effect on tumor volume of the SW48-parental xenograft (FIG. 2A): reduced
[3]; dual model with SW48-KRAS (G13D/+)
  effect on tumor volume of the SW48-parental xenograft (FIG. 1A): significantly reduced
